Measurements as given in publication PMC8232704, “Hydrophobic Tagging-Mediated Degradation of Transcription Coactivator SRC-1” (International Journal of Molecular Sciences, 2021).
Bridge positions count the residues as written; N and C are the ends. Square brackets hold non-standard residues; d marks the D form. Peptide text beside a SMILES is read from it. N(1-adamantyl)Gly = O=C(O)CNC12CC3CC(CC(C3)C1)C2; Cha = N[C@@H](CC1CCCCC1)C(=O)O; S5 = C=CCCC[C@](C)(N)C(=O)O; PEG3 = NCCOCCOCCOCCC(=O)O

Columns and labels:
[1] = Circular dichroism (CD), calculated helicity; assay type: physicochemical; conditions: 50 μM peptide in 30% PBS (pH 7.4) and 70% acetonitrile, calculated from CD spectra
Method: Lyophilized compounds (YL2 and YL2-HyT1 through YL2-HyT6) were dissolved in 30% PBS (pH 7.4) and 70% acetonitrile solution to a final concentration of 50 μM. CD spectra were measured with a Jasco J-815 CD spectropolarimeter using a quartz cuvette (2 mm path length). These spectra were averages of five successive accumulations with a scan rate of 100 nm/min. Raw data were converted in terms of per-residue molar ellipticity (deg·cm^2·dmol^−1·residue^−1) as calculated per mole of amide groups present and normalized by the molar concentration of peptides. Smoothing and correction of background spectra were performed with Origin Pro 8.0 (OriginLab Corporation, Northampton, MA, USA). Then α-helical propensities of YL2 and YL2-HyT1 through YL2-HyT6 were calculated as previously reported.

[2] = Serum stability in FBS; assay type: in vitro ADME, bovine; conditions: 40 μM in DPBS containing 25% FBS, 37 °C, 0–24 h, LC–MS, normalized to control without FBS
Method: YL2-HyT6 and ND1-YL2 solutions (200 μL, 40 μM in DPBS containing 25% FBS) were incubated at 37 °C for different time periods (0–24 h). For the precipitation of serum proteins, each sample was treated with 100 μL of 15% TFA and incubated at 4 °C overnight. Final samples were then centrifuged at 15,000 rpm for 10 min and filtrated for analysis using LC–MS with a C18 column. The ratio of the remaining compound (%) was calculated by integrating the chromatographic peak of a compound and normalized in comparison with a control sample (incubated without FBS).

[3] = system: CSF-1 mRNA in MDA-MB-231 cells; assay: RT-qPCR of CSF-1 mRNA; assay type: cell-based, human; conditions: 18 h, RT-qPCR normalized to 18S
Method: (§1) Quantitative real-time PCR was performed for CSF-1, E-cadherin, and 18S (as a reference gene) mRNAs. MDA-MB-231 cells (1.2 × 10^5 cells/well) were seeded into a 12-well plate and incubated at 37 °C with 5% CO2 for 24 h. These cells were treated with indicated compounds (YL2, adamantane, ND1-YL2, or YL2-HyT6) for 18 h in Opti-MEM medium. After cells were washed with cold DPBS, mRNAs were isolated from these cells using an AccuPrep Universal RNA extraction kit (Bioneer, Daejeon, Korea). Then 1.5 µg of mRNAs were reverse-transcribed using AccuPower RocketScript Cycle RT PreMix (Bioneer) to generate complementary DNAs. RT-qPCR for CSF-1, E-cadherin, and 18S was performed with a StepOnePlus Real-Time PCR System (Applied Biosystems, Waltham, MA, USA) and SYBR Green mix (Applied Biosystems) according to the manufacturer’s instructions with gene-specific primers (Table 1).

[4] = system: E-cadherin mRNA in MDA-MB-231 cells; assay: RT-qPCR of E-cadherin mRNA; assay type: cell-based, human; conditions: 18 h, RT-qPCR normalized to 18S
Method: as §1

[5] = system: MDA-MB-231 cells; assay: Gap closure migration (wound healing) assay; assay type: cell-based, human; conditions: 20 µM, 72 h
Method: MDA-MB-231 cells (2.8 × 10^4 cells/well) were seeded into Culture-Insert 2 wells (ibidi, 80209) placed in a 35 mm culture dish. After incubation at 37 °C with 5% CO2 for 24 h, Culture-Insert 2 wells were carefully removed from the culture dish with a sterilized tweezer. These cells were then treated with indicated compounds (YL2, adamantane, ND1-YL2, or YL2-HyT6) in Opti-MEM medium for 72 h. Cell images were obtained with a culture microscope (Olympus, Tokyo, Japan, CKX41). The cell-free area of the image was quantified with ImageJ software (NIH, Bethesda, MD, USA). The relative gap-closure area was calculated using the following equation: […] where A was the cell-free area. (2) Gap−Closure %=At=0 h−At=72 h/At=0 h×100

[6] = system: MDA-MB-231 cells; assay: Matrigel transwell invasion assay; assay type: cell-based, human; conditions: Matrigel chambers, 24 h
Method: Matrigel invasion chambers (Corning 354480) were placed in 24-well plates and rehydrated with FBS-free DMEM medium at 37 °C in a CO2 incubator for 2 h. After removing the medium, 4 × 10^4 cells of MDA-MB-231 were seeded into Matrigel invasion chambers and control chambers (Corning, 354578) with 125 µL of Opti-MEM medium. Then another 125 µL of each compound (YL2, adamantane, ND1-YL2, or YL2-HyT6) in Opti-MEM medium was added to each chamber. The bottom of the well was filled with 500 µL of DMEM medium containing 10% FBS 1% PS. The chambers were then incubated at 37 °C with 5% CO2 for 24 h. After removing the medium, the chambers were washed with cold PBS. Then noninvading cells on the upper surface of the membrane were removed by scrubbing with a cotton swab. Cells on the bottom side of the membrane were fixed with 500 µL of 4% formaldehyde for 10 min at rt. After washing with PBS, the bottom side of the chamber was stained with 500 µL of Hoechst 33342 (5 µg/mL) for 5 min at 37 °C in the CO2 incubator. […] The percent invasion (% invasion) of each sample was determined with the following equation:(3) % Invasion=Mean # of cells invading through Matrigel chamber membrane/Mean # of cells migrating through control chamber membrane×100

Question: Which results are given for CC(C)C[C@H](NC(=O)CCOCCOCCOCCNC(=O)CNC12CC3CC(CC(C3)C1)C2)C(=O)N[C@@H](CC(C)C)C(=O)N1CCC[C@H]1C(=O)N1CCC[C@H]1C(=O)N[C@H](C(=O)N[C@@H](CCC(=O)O)C(=O)N[C@@H](CCC(N)=O)C(=O)N[C@@H](CC(=O)O)C(=O)N[C@@H](CC(C)C)C(=O)N[C@@]1(C)CCC/C=C\CCC[C@@](C)(C(=O)N[C@@H](Cc2ccc(O)cc2)C(N)=O)NC(=O)[C@H](CC2CCCCC2)NC(=O)[C@H](CC(C)C)NC(=O)[C@H](CCCCN)NC1=O)[C@@H](C)O [YL2-HyT6] (H-[N(1-adamantyl)Gly][PEG3]LLPPTEQDL[S5]KL[Cha][S5]Y-NH2; staple (Z) 12-16; C-terminus assumed)?
Answer: Helicity (%) [1]: 32.6%; Serum stability (remaining compound) [2]: improved stability relative to the peptide-based PROTAC (ND1-YL2); CSF-1 mRNA expression level [3]: dose-dependent decrease in CSF-1; E-cadherin mRNA expression level [4]: increase in E-cadherin; Wound gap closure (cell migration) [5]: significantly inhibited gap closing; Cell invasion [6]: remarkably decreased the invasion
